In the METLIN SMRT retention time set (Domingo-Almenara et al. 2019):

Assay: gradient 5% acetonitrile 3 min, to 50% in 2 min, to 85% in 15 min, held 3 min, 100 µL/min
Conditions: column: Zorbax Extend-C18 2.1 x 50 mm; eluents: water / acetonitrile, 0.1% formic acid
How it was run: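 Values are retention times taken from adduct peaks that software picked and an analyst inspected. The pure standards were run as mixtures of ~100 molecules on HPLC linked to a quadrupole time-of-flight mass spectrometer, in positive and negative ionization mode. A Zorbax Extend-C18 column (2.1 × 50 mm, 1.8 μm) was used at 100 μL/min with water and acetonitrile, each including 0.1% formic acid.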

RP-LC retention time | SMILES
739 s | O=C1NCCCn2cc(S(=O)(=O)Nc3ccc(OC(F)(F)F)cc3)cc21
811 s | O=c1n(CCOc2ccc(F)cc2)nc2ccc(S(=O)(=O)N3CCOCC3)cn12
832 s | CCc1noc2nc(C)n(CC(=O)NCCCc3ccccc3)c(=O)c12
751 s | CCCC(NC(=O)c1cc(C)cc(C)c1)C(=O)Nc1nc2ccccc2[nH]1 (stereo unspecified)
716 s | Cc1cc(C(=O)Nc2ccc(-c3ccn[nH]3)cc2)c(C)o1
1020 s | Cc1c(C(=O)Nc2ccnn2Cc2ccco2)oc2cc(Br)ccc12
838 s | Cc1ccc(NC(=O)C2CCCN(c3ncnc4c3nc3n4CCCCC3)C2)cc1 (stereo unspecified)
611 s | CCC(=O)N1CCc2cc(C(=O)N3CCN(Cc4ccc5c(c4)OCO5)CC3)ccc21
860 s | O=C(C1CCCN(c2ncnc3c2nc2n3CCCCC2)C1)N1CCc2ccccc21 (stereo unspecified)
612 s | COc1cc(NC(=O)C2(C)CCCCC(=O)N2)cc(OC)c1 (stereo unspecified)
1070 s | CCc1nc(-c2cc(S(=O)(=O)N3CCC(C(=O)NC4CCCCCC4)CC3)c(C)s2)no1
919 s | C=Cc1ccc(CN2N=C(C(=O)N3CCOCC3)S(=O)(=O)c3ccc(C)cc32)cc1
664 s | O=C(NCCCN1CCN(c2ccccc2F)CC1)c1nnc(-c2ccccc2)o1
987 s | CCn1cc(-c2nc(C(=O)Nc3ccc(F)c(C)c3)cs2)c2cccnc21
814 s | COCCN1C(=O)CCc2cc(NC(=O)CC3CCCCC3)ccc21
869 s | CCS(=O)(=O)Nc1ccc(C2(C(=O)NCc3cccc(C)c3)CCC2)cc1
815 s | COCCN(Cc1ccc(F)cc1)Cc1cc(=O)c2cc(F)ccc2[nH]1
819 s | O=C(CN1C(=O)CCCc2cc(S(=O)(=O)N3CCCCC3)ccc21)N1CCCCC1
851 s | CCC(NC(=O)c1ccc2c(c1)nc1n2CCN(C2CCCCC2)C1=O)c1cccs1 (stereo unspecified)
653 s | CN1CC(=O)N(CC(=O)Nc2cccc(C#N)c2)c2ccccc2C1=O
566 s | COc1cc(CCC(=O)N2C[C@@H](C(N)=O)[C@H](c3n[nH]c(C)n3)C2)on1
865 s | CC(C)N1CCCn2cc(S(=O)(=O)Nc3cccc(C(F)(F)F)c3)cc2C1=O
655 s | N#CC1=C2CCCCC2(O)NC1=O (stereo unspecified)

RP-LC retention time | SMILES
808 s | O=C(NCc1ccco1)c1ccc2c(c1)nnn2Cc1ccc(F)cc1
951 s | CCCNC(=O)c1cc2sc(CC)cc2n1C
986 s | O=c1c2cc(-c3ccc4c(c3)OCO4)nn2ccn1Cc1ccc(F)cc1
601 s | CCN(CCN(C)C)C(=O)c1c2c(nc3ccccc13)C(=O)N(C1CCCCC1)C2
649 s | CC1=C(c2ccc(F)cc2)S(=O)(=O)N=C1N1CCCN(C(=O)c2ccncc2)CC1
948 s | CCCCNC(=O)C1CCN(C(=O)c2cc3ccsc3n2Cc2cccc(OC)c2)CC1
611 s | COCCN1CCC2(CC1)CN(Cc1ccccc1OC(C)C)Cc1ccccc1O2
588 s | COCCNC(=O)NCCn1c(-c2ccc(C)cc2)nc2cccnc21
761 s | Cc1noc(-c2nn(C)c3c2CN(C(=O)NCc2ccccc2)CC3)n1
636 s | COCC1CN(S(=O)(=O)c2ccc(F)c(C)c2)CC12CCNCC2 (stereo unspecified)
679 s | CC(NC(=O)Cc1cn(C)c2ncccc12)c1ccccc1 (stereo unspecified)
859 s | COc1ccc(NC(=O)c2cnc3c(c2)c(=O)n(C)c(=O)n3-c2ccc(OC)cc2)cc1
761 s | O=C(CN1C(=O)CCc2cc(Br)ccc21)Nc1ccccn1
1070 s | O=c1c2scc(-c3ccc(F)cc3)c2ncn1CCOc1ccccc1
714 s | Cc1ccc(NC(=O)Cc2nnc(-c3cnccn3)o2)cc1F
840 s | CCOC(=O)C1=C(c2ccc(OC)cc2)NC(=O)NC1c1ccc(OC)cc1 (stereo unspecified)
749 s | O=[N+]([O-])c1ccccc1S(=O)(=O)Nc1ccc(N2CCOCC2)cc1
678 s | CCNc1cc(N2CCC(CCC(=O)NCc3cccc(Cl)c3)CC2)ncn1
860 s | CCCN1C(=O)CCc2cc(NS(=O)(=O)c3ccccc3C(F)(F)F)ccc21
579 s | Cc1ccc(=O)n(CCNC(=O)c2cncc(Br)c2)n1
1010 s | CCCOc1nn(CCC)cc1C(=O)NCc1ccccc1Cl
714 s | O=C(CCCSc1ccc(NC(=O)c2cccs2)nn1)NCc1ccco1
816 s | COC(=O)CNC(=O)N1CCC2(CC1)Nc1cc(F)ccc1-n1cccc12

RP-LC retention time | SMILES
725 s | CCN1CCn2cc(S(=O)(=O)Nc3ccc(C)cc3F)cc2C1=O
604 s | CC(C)NC(=O)c1ccc2nc(-c3ccccc3)cn2c1
803 s | O=C(Nc1ccc(F)cc1F)C1CCN(S(=O)(=O)c2cc(C(=O)N3CCCC3)cs2)CC1
699 s | CCn1cc(CCNC(=O)c2cncc(Br)c2)c2cccnc21
898 s | C=C1C(=O)O[C@@H]2[C@H]3O[C@]3(C)CC/C=C(\C)CC[C@@H]12
856 s | Cc1nn(C)c(C)c1S(=O)(=O)N1CCC(c2noc(-c3ccccc3)n2)C1 (stereo unspecified)
1110 s | Cc1ccc(-c2nnc(Cc3nc(-c4cccc(C)c4)no3)o2)cc1
1120 s | Cc1ccc(-c2nc(CN3C(=O)C(O)(c4ccccc4)c4ccccc43)c(C)o2)cc1 (stereo unspecified)
608 s | CCc1n[nH]c(CC2CCN(C(=O)C3(c4ccccc4)CC3)CC2)n1
930 s | CCn1ncn2cc(S(=O)(=O)Nc3ccc(C)c(C)c3)cc2c1=O
1170 s | Cn1nccc1-c1cccc(-c2noc(-c3ccc(F)c(F)c3)n2)c1
798 s | COc1cccc(CNC(=O)C2CCN(S(=O)(=O)c3ccc4c(c3)sc(=O)n4C)CC2)c1
605 s | CCOC(=O)C1=C(CN2CCC(N3CCCCC3)CC2)NC(=O)NC1c1ccc(OC(C)C)cc1 (stereo unspecified)
1080 s | CCc1ccc(N2CC(c3noc(-c4ccc(OC)cc4)n3)CC2=O)cc1 (stereo unspecified)
591 s | CCN(CCNC(=O)C1CCc2nc(N3CCOCC3)ncc2C1)c1ccccc1 (stereo unspecified)
886 s | COc1ccc(-c2noc(-c3nn(-c4ccc(C)c(C)c4)ccc3=O)n2)cc1OC
902 s | CCn1ccc2c(cc(C(=O)Nc3ccc(C(C)C)cc3)n2C)c1=O
759 s | CC(C)NC(=O)c1ccc(Cn2c(SCC#N)nc3cc4c(cc3c2=O)OCO4)cc1
882 s | COc1ccc(-c2nn3c(CSc4ccccc4)nnc3s2)cc1OC
671 s | CCNc1cc(N2CCCC(CCC(=O)Nc3ccc(OC)cc3OC)C2)ncn1 (stereo unspecified)
709 s | CC(C)Cn1c(CCNC(=O)c2cccc(F)c2)nc2cccnc21
991 s | COc1cccc(-c2nnc(Cc3nc(-c4cccc(F)c4)no3)o2)c1
739 s | Cc1ccn2c(Nc3ccc4c(c3)OCCO4)c(-c3cccc(Br)c3)nc2c1

RP-LC retention time | SMILES
655 s | COc1cccc(NC(=O)C2CC(=O)N(c3ccc4c(c3)CCN4C(=O)C3CC3)C2)c1 (stereo unspecified)
611 s | Cc1nn(C)cc1CN(C)C(=O)NC1CCCCC1
716 s | COCCN1C(=O)CCc2cc(NC(=O)c3cncc(Br)c3)ccc21
614 s | CC(C)CC1c2nccn2CCCN1C(=O)c1cc(C2CC2)[nH]n1 (stereo unspecified)
860 s | O=C(NC(c1ccccc1)c1nnc(N2CCCC2)o1)c1ccc(Cl)cc1 (stereo unspecified)
740 s | NC(=O)c1cnc(-c2ccccc2)n(CC(=O)Nc2ccccc2Br)c1=O
600 s | O=C(c1ccccc1Cl)N1CCN(c2nc(CN3CCOCC3)cs2)CC1
1020 s | COc1ccc(CNC(=O)C2(C)CCCN(S(=O)(=O)c3ccc(Br)cc3)C2)cc1 (stereo unspecified)
936 s | CCc1ccc(N2C=C(C(=O)N3CCOCC3)S(=O)(=O)c3ccc(Cl)cc32)cc1
671 s | Cc1cnc(CC2CCN(S(=O)(=O)c3cccc(F)c3)C2)n1C(C)C (stereo unspecified)
694 s | COc1cccc(Nc2cc(C(=O)N3CCSCC3)nc3ccc(C)cc23)c1
990 s | Cc1ccc(N2CCN(S(=O)(=O)N(C)C)CC2)cc1Cl
696 s | Cc1c(-c2cccc(NC(=O)c3cccc(Br)c3)c2)nc2ncccn12
745 s | Cn1cnc(S(=O)(=O)N2CC(c3nc(CCOCc4ccccc4)no3)C2)c1
748 s | Cc1cccc(CNC(=O)C2c3ccccc3CC(=O)N2C)c1 (stereo unspecified)
1040 s | O=C(NC1CCCC1)C1CCCCN1S(=O)(=O)c1ccc(Br)cc1 (stereo unspecified)
995 s | COc1ccccc1-c1ccc(=O)n(Cc2nc(-c3ccc(F)cc3)no2)n1
862 s | COc1ccccc1NC(=O)C1c2cc(OC)c(OC)cc2C(=O)N2CCc3ccccc3C12 (stereo unspecified)
795 s | COc1ccc(CNC(=O)C2=C3CCCN3c3ccccc3S2(=O)=O)cc1
1010 s | COc1ccc(NC(=O)C2(C)Oc3cccnc3N(C(C)C)C2=O)c(OC)c1 (stereo unspecified)
599 s | CCCn1cnnc1C1CCCCN1Cc1ccc(Br)o1 (stereo unspecified)

SMILES | RP-LC retention time
Cn1cc(C(=O)NC2CCCCC2)c2cccnc21 | 726 s
